Measurements published in paper PMC11475664, “Alpha-glucosidase inhibitory compounds from Vietnamese lichen Usnea baileyi: in vitro and in silico aspects” (RSC Advances, 2024).
Values after ≈ are worked out from the molar mass of the structure shown. Like-named read-outs stand apart in the source and are kept apart here.

Tests used:
Hek293 cells = test: Cytotoxicity assay (MTT, 72 h) on Hek293; type: cell-based; details: Homo sapiens, read-out: Hek293 IC50
Description: (§1) Table S2. Cytotoxicity of compounds 1-6, 11, 1a-1e, and 6a […]
(§2) The method used followed that reported by Nguyen et al. (2022). Briefly, HepG2 and Hek293 cells in a complete medium containing DMEM (HyClone, Cytiva, USA) and 10% fetal bovine serum (FBS) were seeded into a 96-well plate at 5 × 10^4 cells per well. The cells were then incubated at 37°C with 5% CO2. After culturing for 24 h, the old medium was replaced by diluted compounds (in DMSO), positive control Doxorubicin (DOX, Fesenius Kabi, Germany), and negative control dimethyl sulfoxide (DMSO, Sigma-Aldrich, Germany). After 72 h of treatment, MTT (3-(4,5-Dimethyl-2-thiazolyl)-2,5-diphenyl-2H-tetrazolium bromide) was added into each well of the test plate. The plate was incubated at 37°C with 5% CO2 for another 3 h. DMSO was used to dissolve the crystals from the interaction between MTT and viable cells. The absorbance of samples was read at 570 nm by the ELISA Reader (BioTek, USA). Cell death (% inhibition) was estimated by the following formula:
(§3) % Inhibition = 100 − [100 × (A Sample – A B1)/(ADMSO – A B2)]
(§4) Where, ASample: Absorbance of sample, ADMSO: Absorbance of negative control, AB1: Absorbance of blank of sample, AB2: Absorbance of blank of DMSO. The IC50 value and the inhibitory chart were respectively calculated and built using GraphPad Prism software (version 8.0.1, Insightful Science LLC, […]
(§5) Ref: Nguyen HH, Aree T, Nguyen HT, et al. Diorygmones A-B, two new guaiane-sesquiterpenes from the cultured lichen mycobiont of Diorygma sp. Natural Product Research. Published online February 1,

alpha-glucosidase [1] = details: cited from earlier work
HepG2 cells = test: Cytotoxicity assay (MTT, 72 h) on HepG2; type: cell-based; details: Homo sapiens, read-out: HepG2 IC50
Description: as §1, §2, §3, §4, §5

yeast alpha-glucosidase = test: Alpha-glucosidase inhibition assay; type: biochemical; details: for IC50: yeast alpha-glucosidase
Description: Evaluation of the inhibitory activity of compounds against yeast alpha-glucosidase followed a previous procedure.[30]

alpha-glucosidase [2] = test: Inhibitory type assay of 1e on alpha-glucosidase (Lineweaver–Burk plots, pNPG substrate); type: biochemical, yeast
Description: Replacing the imine group in 1a and 1b for the aldehyde group in 1 enhances the activity. […] In contrast, the bromine atoms within a depsidone skeleton (1c, 1d, and 6a) decrease the activity. […] At concentrations of 0, 1.82, 3.64, 7.28, and 14.57 μM of 1e, the activity was evaluated. […] This type was identical to that of parmosidone F.[18]
The mechanisms of inhibition of alpha-glucosidase by 1e were determined by Lineweaver–Burk plots using methods similar to those reported in the literature.[18] Enzyme inhibition due to various concentrations of 1e was evaluated by monitoring the effects of different substrate concentrations. For Lineweaver–Burk double reciprocal plots 1/enzyme velocity (1/V) vs. 1/substrate concentration (1/[S]), the inhibition type was determined using various concentrations of pNPG (1 mM, 2 mM, and 4 mM) as a substrate in the presence of different concentrations of the test compounds (0, 1.82, 3.64, 7.28, and 14.57 μM for 1e). The experiments were carried out in 3 replicates. The mixtures were incubated at 37 °C and the optical density was measured at 405 nm every 1 minutes for 30 minutes with the ELx800 Absorbance Microplate Reader (BioTek Instruments, Inc., Vermont, USA). Optimal concentrations of the tested compounds were chosen based on the IC50 values. […]

[3] = Cytotoxicity assay (MTT, 72 h) on Hek293; type: cell-based; details: human
Description: as §1, §2, §3, §4, §5

[4] = Cytotoxicity assay (MTT, 72 h) on HepG2; type: cell-based; details: human
Description: as §1, §2, §3, §4, §5

[5] = normal cells Hek293, MTT, 72 h, Table S2
[6] = read-out: IC50, alpha-glucosidase inhibition, previously reported
[7] = liver cancer cell line HepG2, MTT, 72 h, Table S2
[8] = read-out: IC50, alpha-glucosidase inhibition of natural analogs of 1e (Fig. 9)
[9] = read-out: IC50, alpha-glucosidase inhibition of related synthetic analogs (Fig. 8)

Structure (SMILES) | IC50 (Hek293 cells; [5]) [µg/mL] | IC50 (HepG2 cells; [7]) [µg/mL] | IC50 (yeast alpha-glucosidase) [µM] | other results
Cc1cc(O)c(C=O)c2c1C(=O)Oc1c(CO)c(O)c(C(=O)O)c(C)c1O2 [Compound 1, protocetraric acid] | 35.7 ± 2.4 (≈ 95.5 µM) | 63.6 ± 0.06 (≈ 170 µM) | 70.6 ± 1.2 | IC50 (alpha-glucosidase [1]; [6]): 81.6 µM
Cc1cc(O)c(/C=N/Nc2ccccc2)c2c1C(=O)Oc1c(CO)c(O)c(C(=O)O)c(C)c1O2 [Compound 1a, (E)-3,8-dihydroxy-9-(hydroxymethyl)-1,6-dimethyl-11-oxo-4-((2-phenylhydrazono-)methyl)-11H-dibenzo[b,e][1,4]dioxepine-7-carboxylic acid] | > 100 | > 100 | 25.9 ± 2.2 | –
Cc1cc(O)c(/C=N/Nc2ccc(Br)cc2)c2c1C(=O)Oc1c(CO)c(O)c(C(=O)O)c(C)c1O2 [Compound 1b, (E)-4-((2-(4-bromophenyl)hydrazono)methyl)-3,8-dihydroxy-9-(hydroxymethyl)-1,6-dimethyl-11-oxo-11H-dibenzo[b,e][1,4]dioxepine-7-carboxylic acid] | > 100 | > 100 | 20.7 ± 1.1 | –
Cc1c(Br)c(O)c(Br)c2c1Oc1c(Br)c(O)c(Br)c(C)c1C(=O)O2 [Compound 1c, 2,4,7,9-tetrabromo-3,8-dihydroxy-1,6-dimethyl-11H-dibenzo[b,e][1,4]dioxepin-11-one] | 58.9 ± 2.84 (≈ 100 µM) | 76.5 ± 1.07 (≈ 130 µM) | 80.7 ± 1.8 | –
CC(=O)OCc1c(O)c(Br)c(C)c2c1OC(=O)c1c(C)c(Br)c(O)c(Br)c1O2 [Compound 1d, (2,4,7-tribromo-3,8-dihydroxy-1,6-dimethyl-11-oxo-11H-dibenzo[b,e][1,4]dioxep-in-9-yl)methyl acetate] | 61.1 ± 2.71 | 86.7 ± 0.68 | 91.8 ± 1.5 | –
Cc1cc(O)c(C=O)c2c1C(=O)Oc1c(C)c(C(=O)O)c(O)c(Cc3c(O)cc(O)c(Cc4c(O)c(C(=O)O)c(C)c5c4Oc4c(C=O)c(O)cc(C)c4C(=O)O5)c3C)c1O2 [Compound 1e, 6,6′-((4,6-dihydroxy-2-methyl-1,3-phenylene)bis(methylene))bis(4-formyl-3,7-dihydroxy-1,9-dimethyl-11-oxo-11H-dibenzo[b,e][1,4]dioxepine-8-carboxylic acid)] | > 100 | > 100 | 10.4 ± 0.4 | inhibition type (alpha-glucosidase [2]; Lineweaver–Burk plots, 0, 1.82, 3.64, 7.28, 14.57 μM of 1e): mixed-mode inhibitor; Ki (alpha-glucosidase [2]; secondary plot, Fig. 4B, read-out: Ki, inhibition constant of binding with the free enzyme): 6.65 ± 0.48 µM; alpha-glucosidase inhibition, fold stronger than 1 (yeast alpha-glucosidase; compared with 1): seven-fold
COc1cc(C)c2c(c1C=O)Oc1c(c(C)c(O)c3c1C(OC)OC3=O)OC2=O (stereo not drawn) [Compound 2, 8′-methylstictic acid] | > 100 | > 100 | 41.8 ± 1.5 | –
COc1cc(C)c2c(c1C=O)Oc1c(c(C)c(O)c3c1C(O)OC3=O)OC2=O (stereo not drawn) [Compound 3, stictic acid] | 33.9 ± 1.6 (≈ 87.8 µM) | > 100 | 30.4 ± 1.4 | –
COc1cc(C)c2c(c1C=O)Oc1c(C=O)c(C(=O)O)c(O)c(C)c1OC2=O [Compound 4, 4,6-diformyl-8-hydroxy-3-methoxy-1,9-dimethyl-11-oxo-11H-dibenzo[b,e][1,4]dioxepine-7-carboxylic acid] | > 100 | > 100 | > 200 | –
COc1c(C)c2c(c(C)c1Cl)Oc1c(C)c(O)c(Cl)c(C)c1C(=O)O2 [Compound 5, vicanicin] | > 100 | > 100 | > 200 | –
Cc1cc(O)c(C=O)c2c1C(=O)Oc1c(C)c(O)c3c(c1O2)C(O)OC3=O (stereo not drawn) [Compound 6, norstictic acid] | > 100 | > 100 | 50.7 ± 2.7 | –
Cc1c(O)c2c(c3c1OC(=O)c1c(C)c(Br)c(O)c(C=O)c1O3)C(O)OC2=O (stereo not drawn) [Compound 6a, 9-bromo-1,4,10-trihydroxy-5,8-dimethyl-3,7-dioxo-3,7-dihydro-1H-benzo[6,7][1,4]-dioxepino[2,3-e]isobenzofuran-11-carbaldehyde] | 88.2 ± 2.02 (≈ 195 µM) | > 100 | 102 ± 1.8 | –
COc1cc(C)c(C(=O)Oc2cc(C)c(C(=O)O)c(O)c2C)c(OC)c1C [Compound 7, diffractaic acid] | – | – | > 200 | IC50 (alpha-glucosidase [1]; [6]): 420 µM
COc1cc(C)c(C(=O)Oc2cc(C)c(C(=O)O)c(O)c2C)c(O)c1C [Compound 8, barbatic acid] | – | – | > 200 | –
Cc1cc(O)c(C=O)c(O)c1 [Compound 9, atranol] | – | – | > 200 | IC50 (alpha-glucosidase [1]; [6]): 559 µM
Cc1c(Cl)c(O)c(C=O)c(O)c1C(=O)O [Compound 10, 5-chlorohaematommic acid] | – | – | > 200 | –

Structure (SMILES) | IC50 (Hek293 cells; [5]) [µg/mL] | IC50 (HepG2 cells; [7]) [µg/mL] | IC50 (yeast alpha-glucosidase) [µM] | other results
COC(=O)[C@]12Oc3ccc(-c4ccc5c(c4O)C(=O)[C@@H]4CC[C@@H](C)[C@H](O)[C@]4(C(=O)OC)O5)c(O)c3C(=O)C1=C(O)C[C@H](C)[C@H]2O [Compound 11, eumitrin A1] | – | – | 130 ± 2 | IC50 at 72 h [3]: 60.3 µM; IC50 (Hek293 cells; HEK293, 72 h): 37.6 ± 4.3 µg/mL (≈ 60.2 µM); IC50 at 72 h [4]: 62.1 µM; IC50 (HepG2 cells; HepG2, 72 h): 38.8 ± 0.5 µg/mL (≈ 62.1 µM)
Cc1cc(OC(=O)c2c(O)cc(O)c(Cc3c(O)c(C(=O)O)c(C)c4c3Oc3c(C=O)c(O)cc(C)c3C(=O)O4)c2C)cc(O)c1C(=O)O [Cristifone A] | – | – | – | IC50 (alpha-glucosidase [1]; [8]): 21.5 µM
Cc1cc(O)c(C=O)c(O)c1Cc1c(O)c(C(=O)O)c(C)c2c1Oc1c(C=O)c(O)cc(C)c1C(=O)O2 [Cristifone B] | – | – | – | inhibition type, previously reported (alpha-glucosidase [1]): non-competitive inhibitors; IC50 (alpha-glucosidase [1]; [8]): 18.4 µM
COc1cccc2c1C(=O)c1c(O)c3c(c(O)c1C2=O)C[C@@](O)(C(=O)CO)C[C@@H]3O[C@H]1C[C@H](N)[C@H](O)[C@H](C)O1 [Doxorubicin, reference compound] | 2.13 ± 0.01 (≈ 3.92 µM) | 1.89 ± 0.03 (≈ 3.48 µM) | – | –
Cc1cc(O)c(/C=N/Nc2ccc(Br)cc2)c2c1C(=O)Oc1c(CO)c(O)c3c(c1O2)C(O)OC3=O (stereo not drawn) [I, (E)-11-((2-(4-bromophenyl)hydrazineylidene)methyl)-1,4,10-trihydroxy-5-(hydroxymethyl)-8-methyl-7H-benzo[6,7][1,4]dioxepino[2,3-e]isobenzofuran-3,7(1H)-dione] | – | – | – | inhibition type, previously reported (alpha-glucosidase [1]): non-competitive inhibitors; IC50 (alpha-glucosidase [1]; [9]): 11.3 µM
Cc1c(Br)c(O)c(Br)c2c1C(=O)Oc1c(CO)c(O)c(Br)c(C=O)c1O2 [III] | – | – | – | IC50 (alpha-glucosidase [1]; [9]): 16.4 µM
Cc1cc(O)c(/C=N/Nc2ccc(Cl)cc2)c2c1C(=O)Oc1c(CO)c(O)c3c(c1O2)C(O)OC3=O (stereo not drawn) [II] | – | – | – | IC50 (alpha-glucosidase [1]; [9]): 19.4 µM
Cc1c(Br)c(O)c(Br)c2c1C(=O)Oc1c(CO)c(O)c3c(c1O2)C(O)OC3=O (stereo not drawn) [IV] | – | – | – | IC50 (alpha-glucosidase [1]; [9]): 15.6 µM
Cc1cc(OC(=O)c2c(C)cc(O)cc2O)cc(O)c1Cc1c(O)c(C(=O)O)c(C)c2c1Oc1c(C=O)c(O)cc(C)c1C(=O)O2 [Parmoferone A] | – | – | – | IC50 (alpha-glucosidase [1]; [8]): 18.1 µM
Cc1cc(O)cc(O)c1Cc1c(O)c2c(c3c1OC(=O)c1c(C)cc(O)c(C=O)c1O3)C(O)OC2=O (stereo not drawn) [Parmosidone F] | – | – | – | inhibition type, previously reported (alpha-glucosidase [1]): mixed-mode inhibitor; IC50 (alpha-glucosidase [1]; [8]): 2.2 µM
CC(=O)C=Cc1c(O)cc(C)c2c1Oc1c(c(Cc3c(C)cc(O)cc3O)c(O)c3c1C(O)OC3=O)OC2=O (stereo not drawn) [Parmosidone G] | – | – | – | IC50 (alpha-glucosidase [1]; [8]): 4.3 µM
COC(=O)c1c(C)c(Cc2c(O)cc(C)c3c2Oc2c(C=CC(C)=O)c(O)cc(C)c2C(=O)O3)c(O)c(C)c1O [Parmosidone H] | – | – | – | IC50 (alpha-glucosidase [1]; [8]): 17.6 µM
COC(=O)c1c(C)c(Cc2c(O)c(C(=O)O)c(C)c3c2Oc2c(C=O)c(O)cc(C)c2C(=O)O3)c(O)c(C=O)c1O [Parmosidone J] | – | – | – | IC50 (alpha-glucosidase [1]; [8]): 10.7 µM
Cc1cc(O)cc(O)c1Cc1c(O)c(C(=O)O)c(C)c2c1Oc1c(C=O)c(O)cc(C)c1C(=O)O2 [Parmosidone K] | – | – | – | IC50 (alpha-glucosidase [1]; [8]): 6.1 µM
Cc1c(Br)c(O)c(C=O)c2c1C(=O)Oc1c(Br)c(O)c3c(c1O2)C(O)OC3=O (stereo not drawn) [V] | – | – | – | IC50 (alpha-glucosidase [1]; [9]): 14.3 µM
